Measurements as given in article PMC7534258, “Novel temporin L antimicrobial peptides: promoting self-assembling by lipidic tags to tackle superbugs” (Journal of Enzyme Inhibition and Medicinal Chemistry, 2020).
Values after ≈ are worked out from the molar mass of the structure shown. Where a SMILES comes first, the peptide text is derived from it. [ ]: non-standard residue; d: D form. The star is where a group is joined. Tridecanoyl = CCCCCCCCCCCCC(=O)*; Undecanoyl = CCCCCCCCCCC(=O)*; Heptanoyl = CCCCCCC(=O)*; Orn = NCCC[C@H](N)C(=O)O; Pentanoyl = CCCCC(=O)*

How the values were obtained:
P. aeruginosa ATCC 27853 = test: Broth microdilution MIC, reference strain; type: cell-based, Pseudomonas aeruginosa; conditions: for Antimicrobial activity (MIC) P. aeruginosa ATCC 27853: 100% growth inhibition after 16–18 h at 37 °C
Description: (§1) Staphylococcus aureus ATCC 25923, Pseudomonas aeruginosa ATCC 27853 and Klebsiella pneumoniae ATCC BAA-1705 (carbapenemase producer) were obtained from the American Type Culture Collection (Rockville, MD).
(§2) Identification was performed by sub-culturing on Tryptic Soy Agar (TSA, Becton Dickinson) and by biochemical characterisation using the Vitek II system (Biomerieux). The antimicrobial susceptibility testing of all isolates was determined using Vitek II system and results were interpreted according to European Committee on Antimicrobial Susceptibility Testing (EUCAST version 9.0, 2019). P. aeruginosa was cultured in Brain Heart Infusion broth (BHI, OXOID), S. aureus and K. pneumoniae were cultured in Tryptic Soya broth (TSB, OXOID), under aerobic conditions at 37 °C, for 24 h on an orbital shaker at 200 rpm.
(§3) Minimal inhibitory concentrations (MIC) of all the peptides were determined in Mueller–Hinton medium by the broth microdilution assay, following the procedure already described[22]^,[34]. The compounds were added to bacterial suspension in each well yielding a final cell concentration of 1 × 10^6 CFU/ml and a final compound concentration ranging from 0.78 to 100 µM. Negative control wells were set to contain bacteria in Mueller–Hinton broth plus the amount of vehicle (ethanol) used to dilute each compound. Positive controls included vancomycin (2 µg/ml), tobramycin (4 µg/ml), gentamycin (4 µg/ml), and imipenem (8 µg/ml).

S. aureus ATCC 25923 = test: microbe, parasite or virus in culture; conditions: for MIC: Staphylococcus aureus, ATCC25923, read-out: Antimicrobial activity (MIC) S. aureus ATCC 25923
Description: as §1, §2, §3

[1] = system: K. pneumoniae ATCC BAA-1705; test: Broth microdilution MIC, reference strain; type: cell-based, Klebsiella pneumoniae
Description: as §1, §2, §3

Sa1 = test: microbe, parasite or virus in culture; conditions: Staphylococcus aureus, MRSA, read-out: Antimicrobial activity (MIC) Sa1
Description: (§4) Clinical strains of P. aeruginosa (Pa1, Pa2 and Pa3), K. pneumoniae (KpCR1, KpCR2 and KpCR3), and S. aureus (Sa1, Sa2 and Sa3) were isolated from bloodstream or pulmonary infections, and belong to a collection of bacterial strains established between 2010 and 2018 at the Department of Molecular Medicine and Medical Biotechnologies (University Federico II, Naples) for research use.
as §2, §3

Sa2 = test: microbe, parasite or virus in culture; conditions: Staphylococcus aureus, MRSA, read-out: Antimicrobial activity (MIC) Sa2
Description: as §4, §2, §3

KpCR3 = test: microbe, parasite or virus in culture; conditions: Klebsiella pneumoniae, read-out: Antimicrobial activity (MIC) KpCR3
Description: as §4, §2, §3

Pa3 = test: microbe, parasite or virus in culture; conditions: Pseudomonas aeruginosa, read-out: Antimicrobial activity (MIC) Pa3
Description: as §4, §2, §3

Pa1 = test: microbe, parasite or virus in culture; conditions: Pseudomonas aeruginosa, PA1, read-out: Antimicrobial activity (MIC) Pa1
Description: as §4, §2, §3

KpCR1 = test: microbe, parasite or virus in culture; conditions: Klebsiella pneumoniae, read-out: Antimicrobial activity (MIC) KpCR1
Description: as §4, §2, §3

KpCR2 = test: microbe, parasite or virus in culture; conditions: Klebsiella pneumoniae, read-out: Antimicrobial activity (MIC) KpCR2
Description: as §4, §2, §3

Sa3 = test: microbe, parasite or virus in culture; conditions: Staphylococcus aureus, MRSA, read-out: Antimicrobial activity (MIC) Sa3
Description: as §4, §2, §3

Pa2 = test: microbe, parasite or virus in culture; conditions: Pseudomonas aeruginosa, read-out: Antimicrobial activity (MIC) Pa2
Description: as §4, §2, §3

[2] = 100% growth inhibition after 16–18 h at 37 °C

Compound | Antimicrobial activity (MIC) P. aeruginosa ATCC 27853 (P. aeruginosa ATCC 27853) [µM] | Antimicrobial activity (MIC) S. aureus ATCC 25923 (S. aureus ATCC 25923; [2]) [µM] | Antimicrobial activity (MIC) K. pneumoniae ATCC BAA-1705 [1, 2] [µM] | Antimicrobial activity (MIC) S. aureus ATCC 25923 (S. aureus ATCC 25923; ATCC 25923) [µM] | further results
CC[C@H](C)[C@H](NC(=O)[C@H](CCCNC(=N)N)NC(=O)CNC(=O)[C@@H](CC(C)C)NC(=O)[C@H](Cc1ccccc1)NC(=O)[C@H](CCCCN)NC(=O)[C@H](CO)NC(=O)[C@H](Cc1ccccc1)NC(=O)[C@H](Cc1c[nH]c2ccccc12)NC(=O)[C@@H]1CCCN1C(=O)[C@@H](NC(=O)[C@@H](N)Cc1ccccc1)C(C)C)C(=O)N[C@@H](CC(C)C)C(N)=O [Compound 1A, H-Phe-Val-Pro-Trp-Phe-Ser-Lys-Phe-dLeu-Gly-Arg-Ile-Leu-NH2] (H-FVPWFSKF[dL]GRIL-NH2) | 50 | 6.25 | 50 |  | 
CCCCC(=O)N[C@@H](Cc1ccccc1)C(=O)N[C@H](C(=O)N1CCC[C@H]1C(=O)N[C@@H](Cc1c[nH]c2ccccc12)C(=O)N[C@@H](Cc1ccccc1)C(=O)N[C@@H](CO)C(=O)N[C@@H](CCCCN)C(=O)N[C@@H](Cc1ccccc1)C(=O)N[C@H](CC(C)C)C(=O)NCC(=O)N[C@@H](CCCNC(=N)N)C(=O)N[C@H](C(=O)N[C@@H](CC(C)C)C(N)=O)[C@@H](C)CC)C(C)C [Compound 2A, CH3(CH2)3CO-Phe-Val-Pro-Trp-Phe-Ser-Lys-Phe-DLeu-Gly-Arg-Ile-Leu-NH2] (Pentanoyl-FVPWFSKF[dL]GRIL-NH2) |  |  |  | 12.5 | 
CCCCCCC(=O)N[C@@H](Cc1ccccc1)C(=O)N[C@H](C(=O)N1CCC[C@H]1C(=O)N[C@@H](Cc1c[nH]c2ccccc12)C(=O)N[C@@H](Cc1ccccc1)C(=O)N[C@@H](CO)C(=O)N[C@@H](CCCCN)C(=O)N[C@@H](Cc1ccccc1)C(=O)N[C@H](CC(C)C)C(=O)NCC(=O)N[C@@H](CCCNC(=N)N)C(=O)N[C@H](C(=O)N[C@@H](CC(C)C)C(N)=O)[C@@H](C)CC)C(C)C [Compound 3A, CH3(CH2)5CO-Phe-Val-Pro-Trp-Phe-Ser-Lys-Phe-DLeu-Gly-Arg-Ile-Leu-NH2] (Heptanoyl-FVPWFSKF[dL]GRIL-NH2) |  |  |  | 12.5 | 
CCCCCCCCCCC(=O)N[C@@H](Cc1ccccc1)C(=O)N[C@H](C(=O)N1CCC[C@H]1C(=O)N[C@@H](Cc1c[nH]c2ccccc12)C(=O)N[C@@H](Cc1ccccc1)C(=O)N[C@@H](CO)C(=O)N[C@@H](CCCCN)C(=O)N[C@@H](Cc1ccccc1)C(=O)N[C@H](CC(C)C)C(=O)NCC(=O)N[C@@H](CCCNC(=N)N)C(=O)N[C@H](C(=O)N[C@@H](CC(C)C)C(N)=O)[C@@H](C)CC)C(C)C [Compound 4A, CH3(CH2)9CO-Phe-Val-Pro-Trp-Phe-Ser-Lys-Phe-DLeu-Gly-Arg-Ile-Leu-NH2] (Undecanoyl-FVPWFSKF[dL]GRIL-NH2) | > 100 | > 100 | > 100 |  | 
CCCCCCCCCCC(=O)N[C@@H](Cc1ccccc1)C(=O)N[C@H](C(=O)N1CCC[C@H]1C(=O)N[C@@H](Cc1c[nH]c2ccccc12)C(=O)N[C@@H](Cc1ccccc1)C(=O)N[C@@H](CO)C(=O)N[C@@H](CCCCN)C(=O)N[C@@H](Cc1ccccc1)C(=O)N[C@H](CC(C)C)C(=O)N[C@H](CCCCN)C(=O)N[C@@H](CCCNC(=N)N)C(=O)N[C@H](C(=O)N[C@@H](CC(C)C)C(N)=O)[C@@H](C)CC)C(C)C [Compound 4B, CH3(CH2)9CO-Phe-Val-Pro-Trp-Phe-Ser-Lys-Phe-DLeu-DLys-Arg-Ile-Leu-NH2] (Undecanoyl-FVPWFSKF[dL][dK]RIL-NH2) | > 100 | > 100 | > 100 |  | 
CCCCCCCCCCCCC(=O)N[C@@H](Cc1ccccc1)C(=O)N[C@H](C(=O)N1CCC[C@H]1C(=O)N[C@@H](Cc1c[nH]c2ccccc12)C(=O)N[C@@H](Cc1ccccc1)C(=O)N[C@@H](CO)C(=O)N[C@@H](CCCCN)C(=O)N[C@@H](Cc1ccccc1)C(=O)N[C@H](CC(C)C)C(=O)NCC(=O)N[C@@H](CCCNC(=N)N)C(=O)N[C@H](C(=O)N[C@@H](CC(C)C)C(N)=O)[C@@H](C)CC)C(C)C [Compound 5A, CH3(CH2)11CO-Phe-Val-Pro-Trp-Phe-Ser-Lys-Phe-DLeu-Gly-Arg-Ile-Leu-NH2] (Tridecanoyl-FVPWFSKF[dL]GRIL-NH2) | > 100 | > 100 | > 100 |  | 
CCCCCCCCCCCCC(=O)N[C@@H](Cc1ccccc1)C(=O)N[C@H](C(=O)N1CCC[C@H]1C(=O)N[C@@H](Cc1c[nH]c2ccccc12)C(=O)N[C@@H](Cc1ccccc1)C(=O)N[C@@H](CO)C(=O)N[C@@H](CCCCN)C(=O)N[C@@H](Cc1ccccc1)C(=O)N[C@H](CC(C)C)C(=O)N[C@H](CCCCN)C(=O)N[C@@H](CCCNC(=N)N)C(=O)N[C@H](C(=O)N[C@@H](CC(C)C)C(N)=O)[C@@H](C)CC)C(C)C [Compound 5B, CH3(CH2)11CO-Phe-Val-Pro-Trp-Phe-Ser-Lys-Phe-DLeu-DLys-Arg-Ile-Leu-NH2] (Tridecanoyl-FVPWFSKF[dL][dK]RIL-NH2) | > 100 | > 100 | > 100 |  | 
CCCCC(=O)NCCC[C@H](NC(=O)[C@H](CC(C)C)NC(=O)[C@@H](NC(=O)[C@H](CCCNC(=N)N)NC(=O)[C@@H](CCCCN)NC(=O)[C@@H](CC(C)C)NC(=O)[C@H](Cc1ccccc1)NC(=O)[C@H](CCCCN)NC(=O)[C@H](CO)NC(=O)[C@H](Cc1ccccc1)NC(=O)[C@H](Cc1c[nH]c2ccccc12)NC(=O)[C@@H]1CCCN1C(=O)[C@@H](NC(=O)[C@@H](N)Cc1ccccc1)C(C)C)[C@@H](C)CC)C(N)=O [D, H-Phe-Val-Pro-Trp-Phe-Ser-Lys-Phe-DLeu-DLys-Arg-Ile-Leu-Orn(NHCO(CH2)3CH3)-NH2] (H-FVPWFSKF[dL][dK]RIL[Orn](Pentanoyl)-NH2) |  |  |  | 25 | Antimicrobial activity (MIC) K. pneumoniae ATCC BAA-1705 ([1]; ATCC BAA-1705): 50 µM
CCCCCCC(=O)NCCC[C@H](NC(=O)[C@H](CC(C)C)NC(=O)[C@@H](NC(=O)[C@H](CCCNC(=N)N)NC(=O)[C@@H](CCCCN)NC(=O)[C@@H](CC(C)C)NC(=O)[C@H](Cc1ccccc1)NC(=O)[C@H](CCCCN)NC(=O)[C@H](CO)NC(=O)[C@H](Cc1ccccc1)NC(=O)[C@H](Cc1c[nH]c2ccccc12)NC(=O)[C@@H]1CCCN1C(=O)[C@@H](NC(=O)[C@@H](N)Cc1ccccc1)C(C)C)[C@@H](C)CC)C(N)=O [E, H-Phe-Val-Pro-Trp-Phe-Ser-Lys-Phe-DLeu-DLys-Arg-Ile-Leu-Orn(NHCO(CH2)5CH3)-NH2] (H-FVPWFSKF[dL][dK]RIL[Orn](Heptanoyl)-NH2) |  |  |  | 25 | Antimicrobial activity (MIC) K. pneumoniae ATCC BAA-1705 ([1]; ATCC BAA-1705): 50 µM
CNC(C)C1CCC(N)C(OC2C(N)CC(N)C(OC3OCC(C)(O)C(NC)C3O)C2O)O1 (stereo not shown) [Gentamicin] |  |  |  |  | MIC (Sa1): < 1 µg/mL; MIC (Sa2): < 1 µg/mL; MIC (KpCR3): 1 µg/mL (≈ 2.09 µM); MIC (Pa3): > 4 µg/mL; MIC (Pa1): > 4 µg/mL; MIC (KpCR1): 1 µg/mL (≈ 2.09 µM); MIC (KpCR2): > 8 µg/mL; MIC (Sa3): < 1 µg/mL; MIC (Pa2): > 4 µg/mL; MIC (P. aeruginosa ATCC 27853; Pseudomonas aeruginosa, ATCC27853, antibiotics, 16–18 h at 37 °C, read-out: Antimicrobial activity (MIC) P. aeruginosa ATCC 27853): 4 µg/mL (≈ 8.38 µM); MIC (S. aureus ATCC 25923): 1 µg/mL (≈ 2.09 µM); MIC ([1]; Klebsiella pneumoniae, ATCCBAA1705, antibiotics, 16–18 h at 37 °C, read-out: Antimicrobial activity (MIC) K. pneumoniae ATCC BAA-1705): 4 µg/mL (≈ 8.38 µM)
CN[C@H](CC(C)C)C(=O)N[C@H]1C(=O)N[C@@H](CC(N)=O)C(=O)N[C@H]2C(=O)N[C@H]3C(=O)N[C@H](C(=O)N[C@H](C(=O)O)c4cc(O)cc(O)c4-c4cc3ccc4O)[C@H](O)c3ccc(c(Cl)c3)Oc3cc2cc(c3O[C@@H]2O[C@H](CO)[C@@H](O)[C@H](O)[C@H]2O[C@H]2C[C@](C)(N)[C@H](O)[C@H](C)O2)Oc2ccc(cc2Cl)[C@H]1O [Vancomycin] |  |  |  |  | MIC (Sa1): 2 µg/mL (≈ 1.38 µM); MIC (Sa2): 1 µg/mL (≈ 0.69 µM); MIC (Sa3): 2 µg/mL (≈ 1.38 µM); MIC (S. aureus ATCC 25923): 2 µg/mL (≈ 1.38 µM)
